Among the data in patent US12091426B2, “Bifunctional degraders of hematopoietic progenitor kinase and therapeutic uses thereof” (Nurix Therapeutics, Inc., priority 2021, dated 2024) are DC50 and Dmax values, retold here.

This experiment addresses T1, HPK1 (Homo sapiens, UniProt Q92918).
T1 construct: A HiBiT tag was introduced by CRISPR on the N terminus of HPK1 in Jurkat cells; host or cells: Jurkat cells (ATCC TIB-152), monoclonal line with CRISPR knock-in of HiBiT at the endogenous HPK1 locus
The experiment can be described thus: HPK1 Cellular HiBit Degradation Assay. Format: cell-based. The settings on record: HiBiT HPK1 Jurkat cells, 24 hrs; for DC50: concentration at which 50% of HPK1 was remaining, read-out: DC50 Category; for Dmax: Jurkat, maximum degradation vs DMSO vehicle control, read-out: Dmax Category. The procedure, abridged:
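HiBiT-HPK1 Jurkat (CRISPR, N-term tag), 3×10^4 cells/well, RPMI 1640 + 10% FBS; CTMs 10 uM–0.1 nM, 11 pts; 24 hrs, 37° C/5% CO2; lytic HiBiT luminescence; % remaining vs DMSO, parental background subtracted; 4-parameter fit → DC50, Dmax.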
(In general: The HiBiT peptide binds its large partner to form an active luciferase.)

Bounds are passed on as bounds.

T1 sequence (Q92918 whole entry): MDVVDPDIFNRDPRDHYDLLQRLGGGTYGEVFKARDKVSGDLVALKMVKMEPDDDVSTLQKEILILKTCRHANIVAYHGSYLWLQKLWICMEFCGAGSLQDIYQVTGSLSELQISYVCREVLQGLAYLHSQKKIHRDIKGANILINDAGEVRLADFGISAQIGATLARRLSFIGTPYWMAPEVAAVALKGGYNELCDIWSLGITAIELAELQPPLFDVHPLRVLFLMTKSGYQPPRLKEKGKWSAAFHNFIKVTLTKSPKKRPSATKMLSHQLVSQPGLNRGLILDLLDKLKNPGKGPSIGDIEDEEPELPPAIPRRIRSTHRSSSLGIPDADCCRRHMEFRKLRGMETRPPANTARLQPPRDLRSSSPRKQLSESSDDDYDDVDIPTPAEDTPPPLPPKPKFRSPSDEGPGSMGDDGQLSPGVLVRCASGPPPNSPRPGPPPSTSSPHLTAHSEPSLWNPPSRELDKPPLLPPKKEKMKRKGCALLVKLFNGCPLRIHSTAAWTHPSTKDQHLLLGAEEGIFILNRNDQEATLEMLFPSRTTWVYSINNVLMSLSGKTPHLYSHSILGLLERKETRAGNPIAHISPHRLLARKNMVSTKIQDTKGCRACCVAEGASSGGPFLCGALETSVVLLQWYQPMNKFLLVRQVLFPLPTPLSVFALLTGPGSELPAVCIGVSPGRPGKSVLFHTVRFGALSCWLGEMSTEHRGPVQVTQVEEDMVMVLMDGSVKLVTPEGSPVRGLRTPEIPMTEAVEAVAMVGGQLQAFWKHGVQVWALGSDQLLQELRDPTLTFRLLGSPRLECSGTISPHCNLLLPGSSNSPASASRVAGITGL

As a reminder, the DC50 is the concentration giving 50% degradation. The term Dmax denotes the greatest extent of degradation seen. Consider `CC(C)n1cnc2cc(-c3ccc4c(c3)N([C@H]3C[C@@H](N5CCCCC5)C3)C(=O)C43CCN(C(=O)C4CN(C(=O)C5CCN(c6ccc(C7CCC(=O)NC7=O)cn6)CC5)C4)CC3)nc(Nc3ccccc3F)c21` (mixture of isomers) [Example 242, (3RS)-3-[6-(4-{3-[(6-{4-[(2-fluorophenyl)amino]-3-(propan-2-yl)-3H-imidazo[4,5-c]pyridin-6-yl}-2-oxo-1-[(1S,3S)-3-(piperidin-1-yl)cyclobutyl]-1,2-dihydrospiro[indole-3,4′-piperidin]-1′-yl)carbonyl]azetidine-1-carbonyl}piperidin-1-yl)pyridin-3-yl]piperidine-2,6-dione], for which the DC50 is below 100 nM and the maximal degradation (Dmax) is above 85%.

For the compound `CC(C)n1cnc2cc(-c3ccc4c(c3)N([C@H]3C[C@@H](N5CCCCC5)C3)C(=O)C43CCN(C(=O)[C@H]4CCN(C(=O)C5CCN(c6ccc(C7CCC(=O)NC7=O)cn6)CC5)C4)CC3)nc(NC3CC3)c21` (mixture of isomers) [Example 32, (3RS)-3-(6-{4-[(3S)-3-({6-[4-(cyclopropylamino)-3-(propan-2-yl)-3H-imidazo[4,5-c]pyridin-6-yl]-2-oxo-1-[(1S,3S)-3-(piperidin-1-yl)cyclobutyl]-1,2-dihydrospiro[indole-3,4′-piperidin]-1′-yl}carbonyl)pyrrolidine-1-carbonyl]piperidin-1-yl}pyridin-3-yl)piperidine-2,6-dione], the DC50 is 100 to 500 nM and the Dmax is 50 to 70%.

In the case of `CC(C)n1cnc2cc(-c3ccc4c(c3)N([C@H]3C[C@@H](N5CCCCC5)C3)C(=O)C43CCN(C(=O)C4CCN(C(=O)[C@H]5CC[C@H](Oc6ccc(C7CCC(=O)NC7=O)cc6)CC5)CC4)CC3)nc(Nc3ccncc3F)c21` (mixture of isomers) [Example 61, (3RS)-3-(4-{[(1R,4R)-4-{4-[(6-{4-[(3-fluoropyridin-4-yl)amino]-3-(propan-2-yl)-3H-imidazo[4,5-c]pyridin-6-yl}-2-oxo-1-[(1S,3S)-3-(piperidin-1-yl)cyclobutyl]-1,2-dihydrospiro[indole-3,4′-piperidin]-1′-yl)carbonyl]piperidine-1-carbonyl}cyclohexyl]oxy}phenyl)piperidine-2,6-dione], the half-maximal degradation concentration (DC50) was below 100 nM and the greatest degradation seen (Dmax) lay in the range of 50 to 70%.

On to `CC(C)n1cnc2cc(-c3ccc4c(c3)N([C@H]3C[C@@H](N5CCCCC5)C3)C(=O)C43CCN(C(=O)C4CCN(C(=O)CN5CCN(c6ccc(C7CCC(=O)NC7=O)cn6)CC5)CC4)CC3)nc(NC3CC3)c21` (mixture of isomers) [Example 94, (3RS)-3-[6-(4-{2-[4-({6-[4-(cyclopropylamino)-3-(propan-2-yl)-3H-imidazo[4,5-c]pyridin-6-yl]-2-oxo-1-[(1S,3S)-3-(piperidin-1-yl)cyclobutyl]-1,2-dihydrospiro[indole-3,4′-piperidin]-1′-yl}carbonyl)piperidin-1-yl]-2-oxoethyl}piperazin-1-yl)pyridin-3-yl]piperidine-2,6-dione], for which the DC50 was below 100 nM and the Dmax lay in the range of 50 to 70%.

As for `CC(C)n1cnc2cc(-c3ccc4c(c3)N([C@H]3C[C@@H](N5CCCCC5)C3)C(=O)C43CCN(C(=O)C4CC45CCN(C(=O)C4CCN(c6ccc(C7CCC(=O)NC7=O)cn6)CC4)C5)CC3)nc(NC3CC3)c21` (mixture of isomers) [Example 303, (3RS)-3-(6-{4-[1-({6-[4-(cyclopropylamino)-3-(propan-2-yl)-3H-imidazo[4,5-c]pyridin-6-yl]-2-oxo-1-[(1S,3S)-3-(piperidin-1-yl)cyclobutyl]-1,2-dihydrospiro[indole-3,4′-piperidin]-1′-yl}carbonyl)-5-azaspiro[2.4]heptane-5-carbonyl]piperidin-1-yl}pyridin-3-yl)piperidine-2,6-dione], the DC50 was 500 to 1000 nM and the Dmax lay within 50 to 70%.

Turning to `CC(C)n1cnc2cc(-c3ccc4c(c3)N([C@H]3C[C@@H](N5CCC(F)CC5)C3)C(=O)C43CCN(C(=O)C4(C)CCN(C(=O)C5CCN(c6ccc(C7CCC(=O)NC7=O)cn6)CC5)CC4)CC3)nc(NC3CC3)c21` (mixture of isomers) [Example 208, (3RS)-3-(6-{4-[4-({6-[4-(cyclopropylamino)-3-(propan-2-yl)-3H-imidazo[4,5-c]pyridin-6-yl]-2-oxo-1-[(1S,3S)-3-(4-fluoropiperidin-1-yl)cyclobutyl]-1,2-dihydrospiro[indole-3,4′-piperidin]-1′-yl}carbonyl)-4-methylpiperidine-1-carbonyl]piperidin-1-yl}pyridin-3-yl)piperidine-2,6-dione], the DC50 lay within 100 to 500 nM and the greatest degradation seen (Dmax) is 50 to 70%.

Consider `CC(C)n1cnc2cc(-c3ccc4c(c3)N([C@H]3C[C@@H](N5CCCCC5)C3)C(=O)C43CCN(C(=O)[C@@H]4CCN(C(=O)C5CCN(c6ccc(C7CCC(=O)NC7=O)cn6)CC5)C4)CC3)nc(Nc3ccccc3F)c21` (stereo partly drawn) [Example 24, 3-(6-(4-((R)-3-(6-(4-((2-fluorophenyl)amino)-3-isopropyl-3H-imidazo[4,5-c]pyridin-6-yl)-2-oxo-1-((1s,3S)-3-(piperidin-1-yl)cyclobutyl)spiro[indoline-3,4′-piperidine]-1′-carbonyl)pyrrolidine-1-carbonyl)piperidin-1-yl)pyridin-3-yl)piperidine-2,6-dione], for which the DC50 was below 100 nM and the Dmax was above 85%.

With `CC(C)n1cnc2cc(-c3ccc4c(c3)N([C@H]3C[C@@H](N5CCCCC5)C3)C(=O)C43CCN(C(=O)C4(C)CCN(C(=O)[C@H]5CC[C@H](Oc6ccc(C7CCC(=O)NC7=O)cc6)CC5)CC4)CC3)nc(NC3CC3)c21` (mixture of isomers) [Example 101, (3RS)-3-(4-{[(1R,4R)-4-[4-({6-[4-(cyclopropylamino)-3-(propan-2-yl)-3H-imidazo[4,5-c]pyridin-6-yl]-2-oxo-1-[(1S,3S)-3-(piperidin-1-yl)cyclobutyl]-1,2-dihydrospiro[indole-3,4′-piperidin]-1′-yl}carbonyl)-4-methylpiperidine-1-carbonyl]cyclohexyl]oxy}phenyl)piperidine-2,6-dione], the 50% degradation concentration (DC50) is below 100 nM and the Dmax is 70 to 85%.

On to `CC(C)n1cnc2cc(-c3ccc4c(c3)N([C@H]3C[C@@H](N5CCCCC5)C3)C(=O)C43CCN(C(=O)[C@@H]4CCN(C(=O)C5CCN(c6ccc(C7CCC(=O)NC7=O)cc6)CC5)C4)CC3)nc(NC3CC3)c21` (mixture of isomers) [Example 232, (3RS)-3-(4-{4-[(3R)-3-({6-[4-(cyclopropylamino)-3-(propan-2-yl)-3H-imidazo[4,5-c]pyridin-6-yl]-2-oxo-1-[(1S,3S)-3-(piperidin-1-yl)cyclobutyl]-1,2-dihydrospiro[indole-3,4′-piperidin]-1′-yl}carbonyl)pyrrolidine-1-carbonyl]piperidin-1-yl}phenyl)piperidine-2,6-dione], for which the 50% degradation concentration (DC50) was below 100 nM and the Dmax lay within 70 to 85%.

As for `CC(C)n1cnc2cc(-c3ccc4c(c3)N([C@H]3C[C@@H](N5CCCCC5)C3)C(=O)C43CCN(C(=O)[C@@H]4CCN(C(=O)[C@H]5CC[C@H](Nc6ccc(C(=O)NC7CCC(=O)NC7=O)nc6)CC5)C4)CC3)nc(Nc3ccccc3F)c21` (mixture of isomers) [Example 7, N-[(3RS)-2,6-dioxopiperidin-3-yl]-5-{1[(1R,4R)-4-[(3R)-3-[(6-{4-[(2-fluorophenyl)amino]-3-(propan-2-yl)-3H-imidazo[4,5-c]pyridin-6-yl}-2-oxo-1-[(1S,3S)-3-(piperidin-1-yl)cyclobutyl]-1,2-dihydrospiro[indole-3,4′-piperidin]-1′-yl)carbonyl]pyrrolidine-1-carbonyl]cyclohexyl]amino}pyridine-2-carboxamide], the 50% degradation concentration (DC50) was 500 to 1000 nM and the Dmax was 50 to 70%.
